For data set [1], the system named is Hepatitis B virus. Description: Antiviral activity against HBV infected in human HepG2-NTCP cells assessed as reduction in HBeAg secretion at 1 to 10 uM incubated for 24 hrs followed by replacement with fresh medium and measured at day 5 post infection by ELISA. The settings on record: dose 1-10 µM. The format is functional, organism-based.
Data set [2] relates to Hepatitis delta virus. Description: Antiviral activity against HDV infected in human HepG2-NTCP cells assessed as reduction in intranuclear accumulation of HDV delta antigen at 10 uM incubated for 24 hrs followed by replacement with fresh medium and measured at day 5 post infection by DAPI staining based confocal microscopic analysis (reference value: 12.1 %). The format is functional. Also on record: scale not given: the % may be the effect or the level left.

Data set [3] deals with Hepatitis B virus. Description: Antiviral activity against HBV infected in human HepG2-NTCP cells assessed as reduction in HBeAg secretion measured at day 7 post infection by ELISA. The format is functional, organism-based. Particulars: HepG2, 168 h. (ELISA stands for enzyme-linked immunosorbent assay.)
Data set [4] has as its target T1, Hepatic sodium/bile acid cotransporter (Homo sapiens, UniProt Q14973).
T1 sequence (Q14973 whole entry): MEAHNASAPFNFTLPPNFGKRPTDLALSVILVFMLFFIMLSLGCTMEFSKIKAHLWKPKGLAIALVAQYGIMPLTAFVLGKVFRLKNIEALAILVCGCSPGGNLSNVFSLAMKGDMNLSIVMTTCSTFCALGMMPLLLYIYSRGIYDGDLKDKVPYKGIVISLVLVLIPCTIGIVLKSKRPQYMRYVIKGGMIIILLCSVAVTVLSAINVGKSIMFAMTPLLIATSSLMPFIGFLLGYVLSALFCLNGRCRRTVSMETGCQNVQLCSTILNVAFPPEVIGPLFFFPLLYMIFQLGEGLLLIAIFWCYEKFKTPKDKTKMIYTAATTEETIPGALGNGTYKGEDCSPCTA
Description: Inhibition of human NTCP-mediated [3H]-TCA uptake expressed in human HepG2 cells at 3.3 uM incubated for 10 mins by liquid scintillation counter analysis. The format is cell-based. Particulars: hepg2, 10 min.

In data set [5] the test system is Hepatitis B virus. Description: Antiviral activity against HBV infected in human HepG2-NTCP cells assessed as reduction in HBeAg secretion preincubated for 2 hrs followed by viral infection by ELISA. The format is functional, organism-based.
Data set [6] has as its target T2, Hepatic sodium/bile acid cotransporter (Mus musculus, UniProt O08705).
T2 sequence (O08705 whole entry): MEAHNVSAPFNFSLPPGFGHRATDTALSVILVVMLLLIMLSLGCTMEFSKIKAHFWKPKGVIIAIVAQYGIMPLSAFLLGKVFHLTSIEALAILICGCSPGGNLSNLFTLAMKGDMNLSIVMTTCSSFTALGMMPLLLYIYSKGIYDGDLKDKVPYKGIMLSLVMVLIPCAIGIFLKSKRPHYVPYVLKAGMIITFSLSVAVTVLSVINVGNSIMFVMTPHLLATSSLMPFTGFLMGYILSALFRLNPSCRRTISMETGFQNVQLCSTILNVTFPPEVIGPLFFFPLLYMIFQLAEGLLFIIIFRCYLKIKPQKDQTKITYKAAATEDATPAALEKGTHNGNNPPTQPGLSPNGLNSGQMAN
Description: Inhibition of mouse NTCP-mediated [3H]-TCA uptake expressed in human HepG2 cells. The format is cell-based.

Data set [7] deals with HepG2. Description: Inhibition of monkey NTCP-mediated [3H]-TCA uptake expressed in human HepG2 cells. Particulars: Macaca mulatta. The format is cell-based.
Data set [8] concerns HepG2. Description: Effect on NTCP surface expression in human HepG2-NTCP cells assessed as reduction in NTCP surface expression level after 2 hrs by immunostaining based assay. The format is functional, cell-based.
In data set [9] the test system is HepG2. Description: Cytotoxicity against human HepG2 cells expressing NTCP assessed as reduction in cell viability at 10 uM after 48 hrs by alamar blue assay. The format is cell-based. The settings on record: hepg2, 48 h. (In general: The colour change of resazurin is a common sign of viable cells or microbes.)
The subject of data set [10] is Hepatitis B virus. Description: Antiviral activity against HBV infected in human HepG2-NTCP cells assessed as reduction in HBeAg secretion incubated for 24 hrs followed replacement with fresh medium and measured at day 5 post infection by ELISA. The format is functional, organism-based.
Data set [11] addresses T1, Hepatic sodium/bile acid cotransporter. Description: Inhibition of human NTCP-mediated [3H]-TCA uptake expressed in human HepG2 cells. The settings on record: human, hepg2. The format is cell-based.
Data set [12] relates to Hepatitis delta virus. Description: Antiviral activity against HDV infected in human HepG2-NTCP cells assessed as reduction in intranuclear accumulation of HDV delta antigen at 5 uM incubated for 24 hrs followed by replacement with fresh medium and measured at day 5 post infection by DAPI staining based confocal microscopic analysis (reference value: 12.1 %). The format is functional. Also on record: scale not given: the % may be the effect or the level left.

The test system of the next data set is Hepatocyte. Description: Cytotoxicity against primary tupaia hepatocytes expressing NTCP assessed as reduction in cell viability at 100 uM after 48 hrs by Cell-Titer Glo assay. The format is cell-based. Particulars: scandentia.
The target in data set [13] is T1, Hepatic sodium/bile acid cotransporter. Description: Inhibition of FITC-labeled HBV Pre-S1 polypeptide binding to human NTCP expressed in HepG2 cells after 2 to 3 hrs by confocal microscopic analysis. The format is cell-based. The settings on record: time 2-3 hrs.
In data set [14] the test system is Hepatitis B virus. Description: Antiviral activity against HBV infected in human HepG2-NTCP cells assessed as reduction in HBeAg secretion at 111 to 1000 nM incubated for 24 hrs followed by replacement with fresh medium and measured at day 5 post infection by ELISA. The settings on record: dose 111-1000 nM. The format is functional, organism-based.
The target of data set [15] is T1, Hepatic sodium/bile acid cotransporter. Description: Inhibition of human NTCP-mediated NQL-064 uptake expressed in human HepG2 cells. The format is cell-based.
The test system of data set [16] is HepG2. Description: Inhibition of monkey NTCP-mediated NQL-064 uptake expressed in human HepG2 cells. The format is cell-based. Particulars: Macaca mulatta.
Data set [17] addresses T2, Hepatic sodium/bile acid cotransporter. Description: Inhibition of mouse NTCP-mediated NQL-064 uptake expressed in human HepG2 cells. The format is cell-based.
Data set [18] has as its system Hepatitis B virus. Description: Antiviral activity against HBV infected in human HepG2-NTCP cells assessed as reduction in intracellular accumulation of HBsAg at 1 uM by immunostaining based fluorescence microscopic analysis. The format is functional, organism-based.
The subject of data set [19] is HepG2. Description: Inhibition of tree shrew NTCP-mediated [3H]-TCA uptake expressed in human HepG2 cells. Particulars: Scandentia. The format is cell-based.
Data set [20] concerns the target T3, Solute carrier organic anion transporter family member 1B1 (Homo sapiens, UniProt Q9Y6L6).
T3 sequence (Q9Y6L6 whole entry): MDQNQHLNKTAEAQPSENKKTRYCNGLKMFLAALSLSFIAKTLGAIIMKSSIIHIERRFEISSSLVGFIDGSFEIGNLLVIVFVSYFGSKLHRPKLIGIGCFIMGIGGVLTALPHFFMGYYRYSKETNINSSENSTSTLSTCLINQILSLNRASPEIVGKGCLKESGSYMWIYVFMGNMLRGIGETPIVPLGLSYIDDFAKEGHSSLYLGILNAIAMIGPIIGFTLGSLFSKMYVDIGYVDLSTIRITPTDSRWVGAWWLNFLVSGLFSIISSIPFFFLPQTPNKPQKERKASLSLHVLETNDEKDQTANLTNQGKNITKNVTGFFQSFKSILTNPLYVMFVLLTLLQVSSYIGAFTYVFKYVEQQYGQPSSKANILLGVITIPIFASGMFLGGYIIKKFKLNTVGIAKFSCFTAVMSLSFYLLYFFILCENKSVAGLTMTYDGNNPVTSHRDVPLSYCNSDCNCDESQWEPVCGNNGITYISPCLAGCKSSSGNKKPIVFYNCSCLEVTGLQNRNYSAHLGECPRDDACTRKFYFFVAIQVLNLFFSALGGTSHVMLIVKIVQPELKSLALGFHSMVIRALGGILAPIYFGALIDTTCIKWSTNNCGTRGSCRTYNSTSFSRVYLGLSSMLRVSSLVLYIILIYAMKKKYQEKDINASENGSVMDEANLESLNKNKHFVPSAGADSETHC
Description: Inhibition of human OATP1B1-mediated [3H]-Estrone sulfate uptake expressed in human HepG2 cells at 2 uM. Particulars: hepg2, 2 µM. The format is cell-based.

The subject of data set [21] is Hepatitis B virus. Description: Antiviral activity against HBV infected in human HepG2-NTCP cells assessed as reduction in intracellular accumulation of HBcAg at 1 uM by immunostaining based fluorescence microscopic analysis. The format is functional, organism-based.
For data set [22], the system named is Hepatitis B virus. Description: Antiviral activity against HBV infected in human HepG2-NTCP cells assessed as reduction in HBeAg secretion at 1 uM pre-infected with virus followed by compound addition by ELISA. The format is functional, organism-based.
Data set [23] has as its target T1, Hepatic sodium/bile acid cotransporter. Description: Inhibition of human NTCP-mediated [3H]-TCA uptake expressed in human HepG2 cells at 2 uM. The format is cell-based. Particulars: hepg2, 2 µM.
Data set [24] concerns the target T4, Ileal sodium/bile acid cotransporter (Homo sapiens, UniProt Q12908).
T4 sequence (Q12908 whole entry): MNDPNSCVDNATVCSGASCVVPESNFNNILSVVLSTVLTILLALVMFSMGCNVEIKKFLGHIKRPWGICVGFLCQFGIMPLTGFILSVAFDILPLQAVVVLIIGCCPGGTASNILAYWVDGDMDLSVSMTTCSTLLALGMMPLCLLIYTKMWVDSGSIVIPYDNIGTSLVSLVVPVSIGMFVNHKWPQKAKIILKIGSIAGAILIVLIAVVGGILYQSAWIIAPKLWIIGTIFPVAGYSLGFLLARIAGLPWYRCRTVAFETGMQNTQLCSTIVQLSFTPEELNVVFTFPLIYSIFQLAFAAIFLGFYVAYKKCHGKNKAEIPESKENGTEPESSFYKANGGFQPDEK
Description: Inhibition of human ASBT-mediated [3H]-TCA uptake expressed in human HepG2 cells at 2 uM. The format is cell-based. Particulars: hepg2, 2 µM.

The target in data set [25] is T1, Hepatic sodium/bile acid cotransporter. Description: Inhibition of human NTCP-mediated [3H]-Estrone sulfate uptake expressed in human HepG2 cells at 2 uM. The format is cell-based. Particulars: hepg2, 2 µM.
In data set [26] the test system is Hepatitis B virus. Description: Antiviral activity against HBV infected in human HepG2-NTCP cells assessed as reduction in HBeAg secretion at 1 uM compound added along with viral infection by ELISA. The format is functional, organism-based.
In data set [27] the test system is HepG2. Description: Inhibition of tree shrew NTCP-mediated NQ-064 uptake expressed in human HepG2 cells. The format is cell-based. The settings on record: Scandentia.
The test system of data set [28] is Hepatitis B virus. Description: Antiviral activity against HBV infected in human HepG2-NTCP cells assessed as reduction in HBeAg secretion at 1 uM preincubated with compound followed by viral infection by ELISA. The format is functional, organism-based.
In data set [29] the test system is Hepatitis B virus. Description: Antiviral activity against HBV infected in human HepG2-NTCP cells assessed as reduction in intracellular HBV RNA level at 1 uM by qPCR analysis. The format is functional, organism-based. (In general: Real-time PCR tracks product formation cycle by cycle.)

The source made the active and inactive calls. The rule behind the calls is not given here.

On to `C[C@H](CCC(=O)NCCS(=O)(=O)O)[C@H]1CC[C@H]2[C@@H]3[C@@H](O)C[C@@H]4C[C@H](O)CC[C@]4(C)[C@H]3CC[C@]12C` [TAURURSODIOL], for which the result with Hepatitis B virus [1] was inactive. Besides, the Activity in the data set on Hepatitis delta virus [2] is reported as 7.1%. The IC50 in the data set on Hepatitis B virus [3] amounted to 3000 nM. Also, the “inhibition (INH)” value in data set [4] is given as “Not Active”.

Take `C[C@H](CCC(=O)NCCS(=O)(=O)O)[C@H]1CC[C@H]2[C@@H]3[C@@H](O)C[C@@H]4C[C@H](OCc5cn([C@@H]6CC[C@@]7(C)[C@@H](C6)C[C@H](O)[C@@H]6[C@@H]7CC[C@]7(C)[C@@H]([C@H](C)CCC(=O)NCCS(=O)(=O)O)CC[C@@H]67)nn5)CC[C@]4(C)[C@H]3CC[C@]12C`: the outcome in the data set with Hepatitis B virus [5], with HepG2 [8] and in the data set on Hepatitis B virus [22] was inactive. For the same compound, the “inhibition (INH)” value in data set [6] is “Not Active”; in data set [11], “Active”; in data set [13] it was “Active”; in data set [15], “Active”; in [17], “Not Active”; in data set [20] it was “Not Active”. The “inhibition (INH)” value in [23] is listed as “Active”; in [24] it was “Not Active”; in data set [25], “Active”. The inhibition entry in the data set on HepG2 [7], in the data set on HepG2 [16], in the data set with HepG2 [19] and in the data set on HepG2 [27] was “inactive” throughout. Further, the Activity result in the data set with HepG2 [9] is listed as “Non-Toxic”; in the data set on Hepatitis delta virus [12], 1.8%; in the data set with Hepatocyte, “Non-Toxic”. The IC50 in the data set on Hepatitis B virus [10] turned out to be 12 nM. The outcome in the data set with Hepatitis B virus [14], in the data set with Hepatitis B virus [18], in the data set with Hepatitis B virus [21], in the data set with Hepatitis B virus [26], in the data set on Hepatitis B virus [28] and in the data set on Hepatitis B virus [29] was Active.

Broadly, the IC50 is the concentration needed to halve the response being measured.

For the origin of these results see ChEMBL document CHEMBL4834431, “Design of Dimeric Bile Acid Derivatives as Potent and Selective Human NTCP Inhibitors” (J Med Chem, 2021).
